Assay results published in publication PMC12434521, “Characterization of Next-Generation Inhibitors for the Inward-Rectifier Potassium Channel Kir2.1: Discovery of VU6080824” (ACS Medicinal Chemistry Letters, 2025).
Read-outs that look alike come from different tables or passages of the source. One block for each molecule: values may come before it.

Tests used:
Kir2.3 = target: T1, Kir2.3 (Homo sapiens, UniProt P48050); experiment: Kir2.3 manual patch clamp (MPC); assay type: cell-based
T1 construct: expressed in transfected cells
T1 sequence (P48050 1-445): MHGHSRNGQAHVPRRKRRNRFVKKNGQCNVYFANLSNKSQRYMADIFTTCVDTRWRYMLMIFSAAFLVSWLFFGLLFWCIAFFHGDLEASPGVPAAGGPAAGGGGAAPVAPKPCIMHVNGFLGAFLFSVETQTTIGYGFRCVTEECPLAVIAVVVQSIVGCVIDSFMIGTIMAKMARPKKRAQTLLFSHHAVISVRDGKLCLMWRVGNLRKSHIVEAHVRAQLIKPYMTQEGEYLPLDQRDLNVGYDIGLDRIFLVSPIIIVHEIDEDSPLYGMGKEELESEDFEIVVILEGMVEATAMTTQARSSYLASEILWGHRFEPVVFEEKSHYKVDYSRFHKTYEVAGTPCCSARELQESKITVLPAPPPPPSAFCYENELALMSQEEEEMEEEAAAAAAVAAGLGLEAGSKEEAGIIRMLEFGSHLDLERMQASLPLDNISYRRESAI
Description: Manual Patch Claim Assay Experimental Conditions
Whole-cell patch-clamp electrophysiology was used to record K ir2.1 currents from a stably transfected monoclonal T-Rex-HEK-293 cell line with a tetracycline-inducible promoter expressing human Kir2.1, as described previously1 cultured in a 5% CO2 incubator at 37°C. Kir2.1 expression was induced by overnight treatment with 1 µg/mL tetracycline. Cells were dissociated using 0.25% Trypsin-EDTA and seeded onto 12 mm circular coverslips (Electron Microscopy Sciences, PA, USA) for same-day whole-cell patch-clamp recordings. Kir2.1 currents were recorded at room temperature using an AxoPatch 200B amplifier with Clampex 10.7 software (Molecular Devices, USA). The voltage-clamp protocol consisted of a 1-s step to -120 mV from a -80 mV holding potential, followed by a 2-s ramp to +40 mV, repeated every 10 s. Data were sampled at 5 kHz and filtered at 1 kHz. Patch pipettes, pulled from 1.5 mm OD thin-walled capillaries (Warner Instruments, MA, USA) using a Sutter P-1000 puller (Sutter Instrument, CA, USA), had resistances of 2–3 MΩ when filled with intracellular solution containing (mM): 135 KCl, 10 HEPES, 1 EGTA, 2 MgCl2, 2 Na2ATP (pH 7.35, adjusted with KOH). The extracellular solution contained (mM): 135 NaCl, 5 KCl, 2 CaCl2, 1 MgCl2, 5 Glucose, 10 HEPES, 10 Sucrose (pH 7.35, adjusted with NaOH). After establishing stable baseline Kir2.1 currents, cells were perfused with compounds at concentrations of 0.03–30 µM until response saturation (within minutes).
Recordings concluded with a 2 mM Ba2+ solution to isolate Ba2+-sensitive currents, with compound responses expressed as fractions of this current. Current amplitudes at the -120 mV step were analyzed using Clampfit 11.2 (Molecular Devices). IC50 values were calculated by fitting the Hill equation to concentration-response curves (CRCs) using variable -slope nonlinear regression in GraphPad Prism 10.4 (GraphPad Software).
MPC experiments for Kir2.2 and Kir2.3 were conducted in an analogous fashion.1

Kir4.1 [1] = target: T2, Kir4.1 (Homo sapiens, UniProt P78508); experiment: Kir4.1 thallium flux assay; assay type: cell-based; conditions: selective up to 10 μM
T2 sequence (P78508 1-379): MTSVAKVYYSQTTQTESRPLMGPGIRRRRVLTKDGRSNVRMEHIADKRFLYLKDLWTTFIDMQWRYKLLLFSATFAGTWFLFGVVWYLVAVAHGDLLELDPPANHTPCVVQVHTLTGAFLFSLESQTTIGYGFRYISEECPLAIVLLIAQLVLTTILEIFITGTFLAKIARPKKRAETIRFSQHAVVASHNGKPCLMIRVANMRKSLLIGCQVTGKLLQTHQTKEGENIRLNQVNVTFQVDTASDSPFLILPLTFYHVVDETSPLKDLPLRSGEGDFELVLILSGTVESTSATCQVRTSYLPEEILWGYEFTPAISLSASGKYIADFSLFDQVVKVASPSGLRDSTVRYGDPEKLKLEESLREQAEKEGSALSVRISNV

human Kir2.1 = target: T3, human Kir2.1 (Homo sapiens, UniProt P63252); design: method as in PMID 21615117; conditions: pH 7.4; read-out: Kir2.1 manual patch clamp IC50 (original report); cited from earlier work
T3 construct: expressed in transfected cells
T3 sequence (P63252 1-427): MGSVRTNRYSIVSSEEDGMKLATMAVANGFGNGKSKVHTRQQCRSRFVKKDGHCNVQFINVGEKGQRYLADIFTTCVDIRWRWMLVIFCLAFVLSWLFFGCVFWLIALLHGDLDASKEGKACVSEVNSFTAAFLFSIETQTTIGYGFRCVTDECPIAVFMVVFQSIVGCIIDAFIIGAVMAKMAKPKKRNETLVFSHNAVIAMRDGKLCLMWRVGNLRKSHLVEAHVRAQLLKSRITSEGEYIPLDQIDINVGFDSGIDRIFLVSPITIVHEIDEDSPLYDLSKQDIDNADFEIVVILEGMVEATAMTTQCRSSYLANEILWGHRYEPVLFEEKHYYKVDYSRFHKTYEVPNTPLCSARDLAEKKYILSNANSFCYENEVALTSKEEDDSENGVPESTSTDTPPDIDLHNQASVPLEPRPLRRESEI

Kir4.1 [2] = target: T2, Kir4.1; design: method as in PMID 21615117; conditions: cited from earlier work
Kir7.1 = system: Kir7.1; design: method as in PMID 21615117; conditions: cited from earlier work

Kir2.1/Kir2.3 Selectivity (MPC) (Kir2.3): 1.8 fold
SMILES: [2H]C([2H])([2H])Oc1ccc(CNCc2ccc(-c3cccc(OC)c3)cc2)cc1 [Compound 9]

Kir2.1/Kir2.3 Selectivity (MPC) (Kir2.3): 2.4 fold
SMILES: [2H]C([2H])([2H])Oc1ccc(CNCc2ccc(-c3cccc(OC([2H])([2H])[2H])c3)cc2)cc1 [Compound 13]

Kir2.1/Kir2.3 Selectivity (MPC) (Kir2.3): 1.3 fold
SMILES: [2H]C([2H])([2H])Oc1cccc(-c2ccc(CNCc3ccc(OC)cc3)cc2)c1 [Compound 11]

IC50 (Kir2.3): 0.86 µM
Kir2.1/Kir2.3 Selectivity (MPC) (Kir2.3): 2.5 fold
Kir2.1/Kir2.3 Selectivity (MPC) (Kir2.3; listed as VU6080824): approximately 2 fold
IC50 (Kir4.1 [1]): > 10 µM
SMILES: COc1ccc(CNCc2ccc(-c3cccc(OC)c3)cc2)cc1 [Compound 5s, 1-(3′-Methoxy-[1,1’-biphenyl]-4-yl)-N-(4-methoxybenzyl)methanamine]

SMILES: COc1ccc(CNCc2cccc3ccccc23)cc1 [ML133, N-(4-methoxybenzyl)-1-(naphthalen-1-yl)methanamine, reference compound]
IC50 (human Kir2.1): 1.8 µM
IC50 (Kir4.1 [2]): > 30 µM
IC50 (Kir7.1): > 30 µM
